Read-outs that look alike come from different tables or passages of the source. Blank lines part the entries; values can stand above or below the compound they belong to.
Tests used:
Parameters in all cases: host or cells: CHO cells, stably transfected
[1] = biological target: T1, M1 muscarinic receptor (Homo sapiens, UniProt P11229); assay: [3H]NMS competition binding, M1 CHO membranes; conditions: competition with 1 nM [3H]NMS; read-out: Inhibition constants (Ki) as negative logarithms, M1 (converted)
T1 sequence (P11229 1-460): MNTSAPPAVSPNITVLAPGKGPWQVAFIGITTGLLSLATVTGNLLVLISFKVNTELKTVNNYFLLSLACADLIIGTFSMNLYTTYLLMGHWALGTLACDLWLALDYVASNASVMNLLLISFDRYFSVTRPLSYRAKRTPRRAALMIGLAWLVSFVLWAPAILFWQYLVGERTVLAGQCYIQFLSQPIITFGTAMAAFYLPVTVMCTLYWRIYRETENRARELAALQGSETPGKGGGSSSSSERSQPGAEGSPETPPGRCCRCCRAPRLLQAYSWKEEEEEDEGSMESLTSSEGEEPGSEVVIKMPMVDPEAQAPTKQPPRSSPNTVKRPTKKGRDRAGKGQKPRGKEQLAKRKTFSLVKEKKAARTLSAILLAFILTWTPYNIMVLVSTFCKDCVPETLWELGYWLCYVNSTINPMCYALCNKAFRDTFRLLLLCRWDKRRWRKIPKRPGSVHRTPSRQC

[2] = biological target: T2, M2 muscarinic receptor (Homo sapiens, UniProt P08172); assay: [3H]NMS competition binding, M2 CHO membranes
T2 sequence (P08172 1-466): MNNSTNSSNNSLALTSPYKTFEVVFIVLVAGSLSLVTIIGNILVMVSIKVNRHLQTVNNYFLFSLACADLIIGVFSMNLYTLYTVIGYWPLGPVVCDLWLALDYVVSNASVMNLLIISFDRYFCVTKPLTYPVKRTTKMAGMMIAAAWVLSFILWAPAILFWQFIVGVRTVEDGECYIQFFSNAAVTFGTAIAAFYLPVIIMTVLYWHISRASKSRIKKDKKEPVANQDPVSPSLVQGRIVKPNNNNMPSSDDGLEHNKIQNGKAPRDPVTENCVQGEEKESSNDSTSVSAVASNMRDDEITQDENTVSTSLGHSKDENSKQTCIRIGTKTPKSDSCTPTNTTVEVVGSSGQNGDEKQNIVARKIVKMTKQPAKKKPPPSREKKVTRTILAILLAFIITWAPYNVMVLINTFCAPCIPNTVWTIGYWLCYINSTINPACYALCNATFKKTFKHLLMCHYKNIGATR

[3] = biological target: T1, M1 muscarinic receptor; assay: accumulation of inositol phosphates IPX, M1 CHO cells (M1Gq); type: cell-based; conditions: for Kd: operational model, read-out: pKA (converted); for EC50: read-out: pEC50 (converted)
[4] = biological target: T2, M2 muscarinic receptor; assay: inhibition of forskolin-stimulated cAMP, M2 CHO cells (M2Gi); type: cell-based; conditions: for Emax: CHO, read-out: E′MAX; for Kd: operational model, read-out: pKA (converted); for EC50: read-out: pEC50 (converted)
[5] = biological target: M3 muscarinic receptor (Homo sapiens, UniProt P20309); assay: accumulation of IPX, M3 CHO cells (M3Gq); type: cell-based; conditions: for Kd: read-out: pKA (converted); for EC50: read-out: pEC50 (converted)
[6] = biological target: T3, M4 muscarinic receptor (Homo sapiens, UniProt P08173); assay: inhibition of forskolin-stimulated cAMP, M4 CHO cells (M4Gi); type: cell-based; conditions: for Emax: CHO, read-out: E′MAX; for Kd: read-out: pKA (converted); for EC50: read-out: pEC50 (converted)
T3 sequence (P08173 1-479): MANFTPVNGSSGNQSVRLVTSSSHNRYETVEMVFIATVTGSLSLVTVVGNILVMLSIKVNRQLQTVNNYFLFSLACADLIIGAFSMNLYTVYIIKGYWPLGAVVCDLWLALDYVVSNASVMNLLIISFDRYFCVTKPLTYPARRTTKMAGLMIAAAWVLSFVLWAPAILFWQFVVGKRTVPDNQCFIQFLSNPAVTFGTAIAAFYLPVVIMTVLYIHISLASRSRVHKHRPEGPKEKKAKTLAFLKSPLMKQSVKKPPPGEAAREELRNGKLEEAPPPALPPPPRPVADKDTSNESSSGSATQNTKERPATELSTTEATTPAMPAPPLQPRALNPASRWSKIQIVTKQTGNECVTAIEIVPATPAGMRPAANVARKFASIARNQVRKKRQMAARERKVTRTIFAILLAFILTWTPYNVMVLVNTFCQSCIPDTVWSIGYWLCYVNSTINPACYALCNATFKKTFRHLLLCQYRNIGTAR

[7] = competition with 1 nM [3H]NMS, read-out: Inhibition constants (Ki) as negative logarithms, M2 (converted)
[8] = M1 (↑IPX), preferential response, Table 7
[9] = M1 (↑IPX), preferential response, Table 7, operational efficacy
[10] = M1 (↑IPX), preferential response, relative to carbachol, Tables 2, 3, 7
[11] = M1 (↑IPX), preferential response, to carbachol, Tables 2, 3, 7
[12] = M2 (↓cAMP), preferential response, Table 7
[13] = M2 (↓cAMP), preferential response, Table 7, operational efficacy
[14] = M3 (↑IPX), preferential response, Table 7
[15] = M3 (↑IPX), preferential response, Table 7, operational efficacy
[16] = M3 (↑IPX), preferential response, Table 7, operational model
[17] = M3 (↑IPX), preferential response, relative to carbachol, Tables 2, 3, 7
[18] = M3 (↑IPX), preferential response, to carbachol, Tables 2, 3, 7
[19] = M4 (↓cAMP), preferential response, Table 7
[20] = M4 (↓cAMP), preferential response, Table 7, operational efficacy
[21] = M4 (↓cAMP), preferential response, Table 7, operational model
[22] = M4 (↓cAMP), preferential response, relative to carbachol, Tables 2, 3, 7
[23] = M4 (↓cAMP), preferential response, to carbachol, Tables 2, 3, 7

Sequence of M3 muscarinic receptor (P20309 whole entry): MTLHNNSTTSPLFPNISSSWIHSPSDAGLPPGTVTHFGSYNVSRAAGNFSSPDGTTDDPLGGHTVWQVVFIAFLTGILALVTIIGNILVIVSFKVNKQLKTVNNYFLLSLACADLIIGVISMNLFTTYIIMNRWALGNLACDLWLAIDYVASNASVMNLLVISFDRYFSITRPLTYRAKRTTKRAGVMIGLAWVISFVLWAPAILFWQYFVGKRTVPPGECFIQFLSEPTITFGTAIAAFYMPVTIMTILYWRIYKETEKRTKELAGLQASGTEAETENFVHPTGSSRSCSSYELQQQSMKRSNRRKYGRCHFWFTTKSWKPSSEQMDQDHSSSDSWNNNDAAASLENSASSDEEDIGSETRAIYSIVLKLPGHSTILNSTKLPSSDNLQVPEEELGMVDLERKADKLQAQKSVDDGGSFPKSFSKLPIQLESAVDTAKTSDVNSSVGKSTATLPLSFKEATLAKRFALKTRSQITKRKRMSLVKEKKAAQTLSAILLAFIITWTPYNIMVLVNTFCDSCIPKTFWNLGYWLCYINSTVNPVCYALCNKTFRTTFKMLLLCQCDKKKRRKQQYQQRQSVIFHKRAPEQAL

Structure (SMILES): C[N+]1(Cc2cccs2)CC=CCC1.[I-] (stereo not drawn) [Compound 7A, 1-methyl-1-[(thiophen-2-yl)methyl]-1,2,3,6-tetrahydropyridin-1-ium iodide]
Ki [1]: 11.2 µM | Ki [2, 7]: 7.94 µM | E′MAX [3, 8]: 4.6 ± 0.4 fold over basal | τ [3, 9]: 0.12 ± 0.01 | Kd [3, 8]: 3.16 µM | EC50 [3, 8]: 2.63 µM | RAi [3, 10]: 0.0111 ± 0.0002 | Δlog(τ/KA) [3, 11]: 1.96 ± 0.16 | E′MAX ([3]; M1Gq (↑IPX), Table 8): 4.6 ± 0.4 fold increase | pEC50 ([3]; M1Gq (↑IPX), Table 8): 5.58 ± 0.03 | pKA ([3]; M1Gq (↑IPX), Table 8): 5.5 ± 0.1 | τ ([3]; M1Gq (↑IPX), Table 8): 0.12 ± 0.01 | RAi ([3]; M1Gq (↑IPX), Table 8, relative to carbachol): 0.012 ± 0.006 | Δlog(τ/KA) ([3]; M1Gq (↑IPX), Table 8, to carbachol): 1.93 ± 0.25 | Emax [4, 12]: 53 ± 2% | τ [4, 13]: 1.51 ± 0.15 | Kd [4, 12]: 1 µM | EC50 [4, 12]: 0.389 µM | E′MAX ([4]; M2Gi (↓cAMP), Table 8): 53 ± 2 % inhibition | pEC50 ([4]; M2Gi (↓cAMP), Table 8): 6.41 ± 0.05 | pKA ([4]; M2Gi (↓cAMP), Table 8): 6.0 ± 0.1 | τ ([4]; M2Gi (↓cAMP), Table 8): 1.5 ± 0.2 | RAi ([4]; M2Gi (↓cAMP), Table 8, relative to carbachol): 0.140 ± 0.008 | Δlog(τ/KA) ([4]; M2Gi (↓cAMP), Table 8, to carbachol): 0.93 ± 0.09 | E′MAX [5, 14]: 3.0 ± 0.3 fold over basal | τ [5, 15]: 0.08 ± 0.01 | Kd [5, 16]: 3.16 µM | EC50 [5, 14]: 3.16 µM | RAi [5, 17]: 0.011 ± 0.001 | Δlog(τ/KA) [5, 18]: 1.94 ± 0.20 | E′MAX ([5]; M3Gq (↑IPX), Table 8): 2.6 ± 0.3 fold over basal | τ ([5]; M3Gq (↑IPX), Table 8): 0.06 ± 0.01 | RAi ([5]; M3Gq (↑IPX), Table 8, relative to carbachol): 0.0084 ± 0.0011 | Δlog(τ/KA) ([5]; M3Gq (↑IPX), Table 8, to carbachol): 2.08 ± 0.34 | EC50 ([5]; M3Gq (↑IPX), Table 8): 3.98 µM | Kd ([5]; M3Gq (↑IPX), Table 8): 3.98 µM | Emax [6, 19]: 39 ± 2% | τ [6, 20]: 0.78 ± 0.08 | Kd [6, 21]: 3.16 µM | EC50 [6, 19]: 1.78 µM | RAi [6, 22]: 0.0209 ± 0.0011 | Δlog(τ/KA) [6, 23]: 1.58 ± 0.22 | E′MAX ([6]; M4Gi (↓cAMP), Table 8): 39 ± 2 % inhibition | τ ([6]; M4Gi (↓cAMP), Table 8): 0.78 ± 0.08 | RAi ([6]; M4Gi (↓cAMP), Table 8, relative to carbachol): 0.0209 ± 0.0011 | Δlog(τ/KA) ([6]; M4Gi (↓cAMP), Table 8, to carbachol): 1.58 ± 0.22 | EC50 ([6]; M4Gi (↓cAMP), Table 8): 1.78 µM | Kd ([6]; M4Gi (↓cAMP), Table 8): 3.16 µM

Ki [1]: 3.98 µM | Ki [2, 7]: 2.29 µM | Ki ([2]; high-affinity fraction of binding to M2, read-out: high affinity binding): ~0.03 µM | E′MAX [3, 8]: 3.9 ± 0.4 fold over basal | τ [3, 9]: 0.09 ± 0.01 | Kd [3, 8]: 5.01 µM | EC50 [3, 8]: 5.01 µM | RAi [3, 10]: 0.0058 ± 0.0007 | Δlog(τ/KA) [3, 11]: 2.24 ± 0.18 | Emax [4, 12]: 36 ± 1% | τ [4, 13]: 0.69 ± 0.07 | Kd [4, 12]: 1.58 µM | EC50 [4, 12]: 0.933 µM | RAi ([4]; M2 (↓cAMP), preferential response, relative to carbachol, Tables 2, 3, 7): 0.029 ± 0.002 | Δlog(τ/KA) ([4]; M2 (↓cAMP), preferential response, to carbachol, Tables 2, 3, 7): 1.48 ± 0.15 | E′MAX [5, 14]: 4.4 ± 0.4 fold over basal | τ [5, 15]: 0.14 ± 0.01 | Kd [5, 16]: 5.01 µM | EC50 [5, 14]: 8.32 µM | RAi [5, 17]: 0.0077 ± 0.0008 | Δlog(τ/KA) [5, 18]: 2.11 ± 0.12 | Emax [6, 19]: 30 ± 1% | τ [6, 20]: 0.51 ± 0.05 | Kd [6, 21]: 3.98 µM | EC50 [6, 19]: 2.88 µM | RAi [6, 22]: 0.0087 ± 0.0009 | Δlog(τ/KA) [6, 23]: 1.90 ± 0.18
Structure (SMILES): Cc1ccc(C[N+]2(C)CC=CCC2)s1.[I-] (stereo not drawn) [Compound 7B, 1-methyl-1-[(5-methylthiophen-2-yl)methyl]-1,2,3,6-tetrahydropyridin-1-ium iodide]

Source: patent publication US11591323B2, “Muscarinic agonists as non-steroidal and non-opioid analgesics and methods of use thereof” (Barry University, priority 2019, dated 2023)
